These are literature values, as cited in publication PMC6777988 (ACS infectious diseases, 2018).

Each structure is given as a SMILES string.

Data set [1] relates to C. parvum. The settings on record: combined with partial CpCDPK1 siRNA knockdown.
In data set [2] the test system is Cryptosporidium. Particulars: immunocompromised patients and malnourished children.

Regarding `CCOc1ccc2cc(-c3nn(CC4CCN(C)CC4)c4ncnc(N)c34)ccc2c1` [Compound 1294], in data set [1], the “effect on proliferation of C. parvum parasites” value is “further inhibitory effects”.
In the case of `CCOc1ccc2cc(-c3nn(C(C)(C)C)c(N)c3C(N)=O)cnc2c1` [Compound 1517], the “effect on proliferation of C. parvum parasites” value in data set [1] is “further inhibitory effects”.
Regarding `CC(=O)Oc1ccccc1C(=O)Nc1ncc([N+](=O)[O-])s1` [Nitazoxanide, nitazoxanide], the efficacy in patients result in data set [2] is reported as “minimal efficacy”.
